# Patent publication US7256178B2, “Physiologically active substances” (priority 2002, dated 2007)
# How the values were obtained:
# [1] = Physicochemical properties: solubility
# VEGF promoter = assay: VEGF transcription inhibitory activity (VEGF-PLAP reporter, U251/1-8 cells under hypoxic conditions); assay type: cell-based; conditions: Homo sapiens, U-251, hypoxic (2% O2) incubator 18 hours, n=2 to 3
# From the text: In order to prepare a reporter system in which transcription from a VEGF promoter is reflected, a VEGF promoter sequence was cloned and inserted into a placental alkaline phosphatase (PLAP) vector to construct a reporter vector.
# In order to obtain a promoter region of human VEGF, a VEGF genome was cloned from a phage library. Based on VEGF cDNA (GenBank accession number: X62568), a PCR primer in the sequence described as SEQ ID NO: 1 or SEQ ID NO: 2 was designed to conduct PCR, thereby obtaining about a fragment of 340 bp. A human genomic phage library (human genomic library, Clontech) was screened using this fragment as a probe to obtain pUC18-VEGFA containing a VEGF5′ franking region of about 5.4 kb. This pUC18-VEGFA was cut with Kpn I/Nhe I to obtain a VEGF promoter region of about 2.3 kb, and the region was inserted into the multicloning site Kpn I/Nhe I of the placental alkaline phosphatase (PLAP) reporter vector (Goto et al., Mol. Pharmacol., 49, 860-873, 1996) to construct a VEGF-PLAP vector.
# The above-described VEGF-PLAP vector was introduced into U251 cells cultured in a Dulbecco's modified Eagle's medium containing 10% fetal bovine serum (DMEM, manufactured by Sigma Co.), and cultured in the presence of 1 mg/mL G418 (Merck & Co., Inc.) to establish a G418-resistant stable clone (U251/1-8 cells).
# As in a report by Minchenko et al. (Cell. Mol. Biol. Res., 40, 35-39, 1994), U251/1-8 cells were confirmed to be a reporter system which secretes PLAP into a culture medium under hypoxic conditions (2% O2 incubator), and in which transcription from a VEGF promoter is reflected. A compound inhibiting VEGF production induced by hypoxic stimulation was screened using this clone.
# In order to eliminate influence of the alkali phosphatase in the serum, the U251/1-8 cells were washed with a sufficient amount of PBS (Phosphate buffered saline) twice, and treated at 65° C. for 20 minutes to inactivate the alkaline phosphatase in the serum. 4×10^4 cells/180 μL per well of the cells diluted in the DMEM culture medium containing 10% of this serum were plated in a 96-well plate.
# The cells were cultured in a CO2 incubator (5% CO2) at 37° C. overnight, and 20 μL of the above-described culture solution containing the test compound at threefold serial dilutions was added. Subsequently, the cells were cultured in hypoxic (2% O2) incubator for 18 hours. To measure the PLAP activity in the culture supernatant liquid, 10 μL of the culture supernatant liquid was added to 50 μL of a 0.28 M Na2CO3—NaHCO3 buffer solution (pH 10.0, 8.0 mM MgSO4), and finally 50 μL of an alkaline phosphatase substrate (Lumistain, Genome Science Laboratories Co., Ltd.) was added thereto. After the reaction for one hour, chemiluminescence was detected using a microplate reader (PerkinElmer) to measure the PLAP activity as the alkaline phosphatase activity. The PLAP activity under normoxic conditions was defined as 0%, the PLAP activity of the cells when treated under hypoxic conditions was defined as 100%, and the concentration for inhibiting 50% of the PLAP activity was defined as the IC50 value of PLAP. The IC50 values of the 6-deoxy 11107D derivatives shown in examples were determined (n=2 to 3).
# [2] = Stability in an aqueous solution (HPLC); assay type: physicochemical; conditions: for Remaining percentage (%): pH 7 Britton-Robinson buffer solution, 25° C., 24 hours
# Experimental: The compound of the formula (I) was dissolved in DMSO at a concentration of 10 to 20 mM, and the solution was diluted with a pH 7 Britton-Robinson buffer solution to about 500-fold. This solution was used as a sample solution, and was incubated at 25° C. for 24 hours.
# The sample solution before and after the incubation was analyzed using high-performance liquid chromatography to obtain a chromatogram. The percentage of the compound remaining in the sample solution after the incubation was determined from the peak area of the chromatogram.
# WiDr human colon tumors = assay: Solid cancer growth inhibitory action, WiDr cells subcutaneously implanted in nude mice; assay type: in vivo, nude mouse; conditions: 15th day, control group as 100%
# Experimental: (§1) In order to examine the solid cancer growth inhibitory activity of the compound of the formula (I) in vivo, WiDr human colon cancer cells were subcutaneously implanted into the body of each nude mouse. […] The control group consisted of ten mice, and the 6-deoxy 11107D derivative-administration group consisted of five mice. The derivative was intravenously injected at 0.625 mg/kg/day, 1.25 mg/kg/day, 2.5 mg/kg/day, 5 mg/kg/day, or 10 mg/kg/day to each mouse of the administration group, and a vehicle was administered to each mouse of the control group.
# (§2) The tumor volumes on the 15th day were measured to determine the relative tumor weight ratio (T/C %), based on the tumor weight of each mouse of the control group as 100%. The body weights on the day of the start of administration, 5th day, 8th day, 12th day and 15th (or 16th) day were measured to examine the relative body weight variations in the case of administering the representative compounds, based on the body weights on the day of the start of administration as 100%. The minimum relative body weight ratios, which are the relative body weight ratios on the day when the body weights were lightest, are shown in Table 3.
# [3] = tested on: WiDr human colon cancer cells; assay: Action of inhibiting proliferation of WiDr human colon cancer cells (MTT); assay type: cell-based; conditions: 72 h, three days, n=2 to 3, read-out: WiDr human colon cancer cell proliferation inhibitory activity (IC50: nM)
# Experimental: 2×10^3 cells/well of WiDr human colon cancer cells cultured in a Dulbecco's modified Eagle's medium containing 10% fetal bovine serum, penicillin (100 units/mL) and streptomycin (100 μg/mL) (DMEM, manufactured by Sigma Co.) were plated in a 96-well plate. The cells were cultured in a CO2 incubator overnight, and 20 μL of the above-described culture solution containing the test compound at threefold serial dilutions was added for culturing the cells. After three days, 50 μL of a 3.3 mg/mL MTT solution was added, and the cells were further cultured for one hour. Then, formazan generated by reduction using living cells was extracted with 100 μL of DMSO to measure the absorbance (A540/A660), which was used as an index of the number of living cells.
# The concentration for inhibiting 50% of proliferation of WiDr human colon cancer cells (IC50 value) of the compound of the formula (I) was determined (n=2 to 3).
# [4] = Body weight reduction (acute toxicity) in the WiDr nude mouse test; assay type: in vivo; conditions: nude mice, day when body weights were lightest, relative to day of start of administration
# Experimental: as §1, §2
# [5] = tested on: L-1210 mouse leukemia cells; conditions: RPM-1640 culture medium; cited from earlier work
# [6] = tested on: HL-60 human leukemia cells; conditions: RPM-1640 culture medium; cited from earlier work
# [7] = tested on: P388 mouse leukemia cells; conditions: RPM-1640 culture medium; cited from earlier work
# [8] = tested on: P388 mouse leukemia cells; conditions: cited from earlier work
smiles,measurement,setting,value
CCC(O)C(C)C1OC1CC(C)/C=C/C=C(\C)C1OC(=O)CC(O)CCC(C)C(OC(C)=O)/C=C/C1C (stereo not shown) [6-deoxy 11107B],Solubility in organic solvents,"[1]; dimethyl sulfoxide, pyridine, methanol, acetone","soluble in dimethyl sulfoxide, pyridine, methanol, and acetone"
same,Solubility in water,[1]; water,poorly soluble in water
"CCC(O)C(C)C1OC1CC(C)(O)/C=C/C=C(\C)C1OC(=O)CC(O)CCC(C)C(OC(=O)N2CCCN(CC)CC2)/C=C/C1C (stereo not shown) [Compound 43, (8E,12E,14E)-7-((4-ethylhomopiperazin-1-yl)carbonyl)oxy-3,16,21-trihydroxy-6,10,12,16,20-pentamethyl-18,19-epoxytricosa-8,12,14-trien-11-olide]",IC50,VEGF promoter,2.3 nM
same,Remaining percentage (%),[2],95.8%
same,WiDr human colon tumor growth inhibitory activity T/C(%),WiDr human colon tumors; 1.25 mg/kg/day intravenously,9%
same,IC50,[3],0.5 nM
same,Minimum relative body weight ratio,[4]; 1.25 mg/kg/day intravenously,0.83
"CCC(O)C(C)C1OC1CC(C)(O)/C=C/C=C(\C)C1OC(=O)CC(O)CCC(C)C(OC(=O)N2C[C@@H]3C[C@H]2CN3C)/C=C/C1C (stereo partly drawn) [Compound 55, (8E,12E,14E)-3,16,21-trihydroxy-6,10,12,16,20-pentamethyl-7-(((1S,4S)-5-methyl-2,5-diazabicyclo[2.2.1]heptan-2-yl)carbonyl)oxy-18,19-epoxytricosa-8,12,14-trien-11-olide]",IC50,VEGF promoter,1.1 nM
same,Remaining percentage (%),[2],95.7%
same,WiDr human colon tumor growth inhibitory activity T/C(%),WiDr human colon tumors; 0.625 mg/kg/day intravenously,11%
same,IC50,[3],0.6 nM
same,Minimum relative body weight ratio,[4]; 0.625 mg/kg/day intravenously,0.80
CCC(OC)C(C)C1OC1C(O)C(C)/C=C/C=C(\C)C1OC(=O)CC(O)CCC(C)(O)C(OC(C)=O)/C=C/C1C (stereo not shown) [FD-895],Stability in an aqueous solution (in words),[2],instable in an aqueous solution
same,Remaining percentage (%),[2],83.0%
same,Remaining percentage (%),[2]; listed as FD895,83%
same,Cytotoxic activity in vitro,[5],has cytotoxic activity
same,Cytotoxic activity in vitro,[6],has cytotoxic activity
same,Cytotoxic activity in vitro,[7],has cytotoxic activity
same,Antitumor activity in vivo,[8],did not show antitumor activity
